Consider two compounds from US9260754B2, “Connexin mutation detection for lymphatic variation and disease” (University of Pittsburgh—Of the Commonwealth System of …, priority 2010, dated 2016).

The assay concerns hTERTs (telomerase-transfected human dermal lymphatic endothelial cells). As to the kind of experiment: Intercellular communication assay (parachute Calcein AM dye transfer) with gap junction inhibitors. Format: cell-based. Particulars: GRA 10 μM, Gap 27 500 μM, 40 min, versus control, p<0.05. Here is the method:
To characterize intercellular gap junction communication over time between seeded donor cells and an acceptor monolayer, LECs were loaded with 2.5 μM Calcein-AM (Invitrogen) in (PBS) for 30 min at 37° C. Excessive dye was removed by rinsing three times in PBS before dislodgment using 500 μl 0.25% Trypsin-EDTA. Detached cells were dispersed with a pipette and 10 μl cell suspensions was added to a confluent LEC monolayer in MCDB-131 supplemented with 25 mM HEPES. To ensure attachment of dye loaded suspended cells, the dish was incubated at 37° C. for 40 min prior to syringe filtration of the medium to remove floating cells that would interfere with subsequent imaging. The dish was thereafter mounted in a temperature controlled open chamber microincubator (Harvard Apparatus) on an inverted Olympus IX81 microscope. […] The Gap27 was handled similarly to GRA and a DMSO control was measured on the same day. Significance was assigned at p<0.05 and treatments were analyzed as independent samples using a Student's t-test. […]
Calcein AM allows cell permeable loading, and with a molecular weight of 662, is frequently used in gap junction communication studies. […] Replicate blinded experiments were performed on at least 2 separate days, and quantitation of dye spread was determined in an automated manner using Metamorph and standardized regions of interest with auto-thresholding. […]

Where no end group is shown, it is not given here.

Turning to `CC1(C)[C@@H](O)CC[C@]2(C)[C@H]3C(=O)C=C4[C@@H]5C[C@@](C)(C(=O)O)CC[C@]5(C)CC[C@@]4(C)[C@]3(C)CC[C@@H]12` [GRA, 18α-glycyrrhetinic acid], the “GJIC by dye transfer in response to gap junction inhibitors” value was “significantly reduced”.

As for “SRPTEKTIFII [Gap 27, Synthetic connexin-mimetic peptide targeted to extracellular loop 2 of Cx43]”, the “GJIC by dye transfer in response to gap junction inhibitors” value is on record as “significantly reduced”.
